Measurements as given in US20110124888A1, “STYRYLBENZOFURAN DERIVATIVES AS INHIBITORS FOR BETA-AMYLOID FIBRIL FORMATION AND PREPARATION METHOD THEREOF” (Korea Institute of Science and Technology, priority 2008, published 2011).
Structures can show the parent of a compound that is named as a salt. Where two headings read alike, the source gives them in different places. Values belong to the compound of their own block, whether it stands above or below them.

Target: T1, beta-amyloid 42 (Aβ42) (Homo sapiens, UniProt P05067)
T1 construct: Beta-amyloid 42 (Aβ42) was dissolved in dimethylsulfoxide (DMSO)
T1 sequence (P05067 672-713 limits assumed): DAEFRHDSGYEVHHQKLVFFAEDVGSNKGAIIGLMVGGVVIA
Experiment: Inhibitory effect on the formation of beta-amyloid fibrils in vitro (ThT fluorescence assay)
Type: biochemical
Details: for inhibition at 10 µM: read-out: % Inhibition (10 μM); for IC50: In vitro ThT analysis (Aβ42: 25 μM); for % inhibition against the beta-amyloid 42 formation compared with curcumin: Tables 1 to 6, relative to curcumin
Experimental: In order to investigate the inhibitory effect on the formation of beta-amyloid fibrils, the inventive compounds were examined as follows:
Beta-amyloid 42 (Aβ42) was dissolved in dimethylsulfoxide (DMSO) to form a […] Aβ42 stock solution. In addition, ThT (thioflavin T) was dissolved in distilled water to a concentration of 1 mM and subsequently diluted with 50 mM glycin buffer (pH 8.5) to yield a 5 μM ThT stock solution.
45 μL of PBS (phosphate buffer saline, pH 7.4) was added to each of a 96 well fluorescence microplate (white, F-bottom). 5 μL of the 250 μM Aβ42 stock solution was added to each well. The final concentration of each compound obtained in Examples was in a range of 10 to 0.001 μM by adding 2 μL of a solution, which is prepared by dissolving the subject compounds obtained in Examples in DMSO, to each well. At this time, the final concentration of Aβ42 in each well was 25 μM. The plate was then incubated at room temperature for 1 hr, and 150 μL of the 5 μM ThT stock solution was added to each well.
The fluorescence intensity of each well was determined with the multi label fluorescence counter (LS-55 Luminescence spectrometer, Perkin Elmer) at an excitation wavelength of 450 nm (excitation slit width: 10 nm) and an emission wavelength of 482 nm (emission slit width: 10 nm), while adjusting counting time to 1 second. The control group was prepared by adding PBS solution, Aβ42 and DMSO, without adding the inventive compound. % Inhibition on the formation of beta-amyloid fibrils was calculated in accordance with the following equation and IC5O was calculated by using GraphPad Prism version 4.03 Program.
% Inhibition=[1−(C−D)/(A−B)]×100 Equation 1%
A (control group): fluorescence intensity in a group treated with PBS solution, Aβ42, and DMSO
B (blank): fluorescence intensity in a group treated with PBS solution and DMSO
C (experimental group): fluorescence intensity in a group treated with PBS solution, Aβ42, DMSO, and the inventive compound
D (compensation value to the experimental group): fluorescence intensity in a group treated with PBS solution, DMSO, and the inventive compound

[1] = 10 μM compound, Aβ42 25 μM, experiment of Table 5
[2] = 10 μM compound, Aβ42 25 μM, experiment of Table 3
[3] = 10 μM compound, Aβ42 25 μM, experiment of Table 6
[4] = 10 μM compound, Aβ42 25 μM, experiment of Table 2
[5] = 10 μM compound, Aβ42 25 μM, experiment of Table 4
[6] = 10 μM compound, Aβ42 25 μM, experiment of Table 7

inhibition at 10 µM [1]: 61.9%
Compound: CNc1ccc(C=Cc2cc3ccc(O)cc3o2)cc1 [Compound 68, 6-hydroxy-2-(4-methylaminostyryl)benzofuran]

inhibition at 10 µM [2]: 70.2%
inhibition at 10 µM [3]: 73.5%
IC50 (experiment of Table 6): 5050 nM
Compound: CNc1ccc(C=Cc2cc3cc(C)ccc3o2)cc1 [Compound 40, 5-methyl-2-(4-methylaminostyryl)benzofuran trifluoroacetate]

inhibition at 10 µM [4]: 55.1%
IC50 (experiment of Table 2): 1180 nM
Compound: CCN(CC)c1ccc(C=Cc2cc3cc(OC)ccc3o2)cc1 [Compound 35, 5-methoxy-2-(4-diethylaminostyryl)benzofuran]

Compound: 5-methyl-2-(aminostyryl)benzofuran trifluoroacetate [Compound 39]
% Inhibition (10 μM) [2]: 60.23%

inhibition at 10 µM [2]: < 1%
Compound: CCN(CC)c1ccc(C=Cc2cc3cc(C)ccc3o2)cc1 [Compound 41, 5-methyl-2-(4-diethylaminostyryl)benzofuran]

inhibition at 10 µM [3]: 84.7%
IC50 (experiment of Table 6): 1490 nM
% inhibition against the beta-amyloid 42 formation compared with curcumin: superior % inhibition
Compound: CNc1ccc(C=Cc2cc3cc(OCCOCCF)ccc3o2)cc1 [Compound 44, 5-(2-(2-fluoroethoxy)ethoxy)-2-(4-methylaminostyryl)benzofuran]

inhibition at 10 µM [2]: 4.54%
Compound: CCN(CC)c1ccc(C=Cc2cc3ccccc3o2)cc1 [Compound 26, 2-(4-diethylaminostyryl)benzofuran]

inhibition at 10 µM [1]: 63.3%
IC50 (experiment of Table 5): 1050 nM
% inhibition against the beta-amyloid 42 formation compared with curcumin: superior % inhibition
Compound: CCN(CC)c1ccc(C=Cc2cc3cc(I)ccc3o2)cc1 [Compound 47, 5-iodo-2-(4-diethylaminostyryl)benzofuran]

inhibition at 10 µM [2]: 57.5%
Compound: Cc1ccc2cc(C=Cc3ccc(N)cc3)oc2c1 [Compound 61, 6-methyl-2-(4-aminostyryl)benzofuran trifluoroacetate]

inhibition at 10 µM [5]: 82.8%
IC50 (experiment of Table 4): 1990 nM
Compound: Nc1ccc(C=Cc2cc3cc(Cl)ccc3o2)cc1 [Compound 29, 5-chloro-2-(4-aminostyryl)benzofuran]

IC50 (experiment of Table 1): 168 nM
% inhibition against the beta-amyloid 42 formation compared with curcumin: superior % inhibition
Compound: CN(C)c1ccc(C=Cc2cc3cc(I)ccc3o2)cc1 [Compound 8, 5-iodo-2-(4-dimethylaminostyryl)benzofuran]

inhibition at 10 µM [1]: 25.8%
Compound: CNc1ccc(C=Cc2cc3cc(OC)c(OC)cc3o2)cc1 [Compound 70, 5,6-dimethoxy-2-(4-methylaminostyryl)benzofuran]

inhibition at 10 µM [3]: 74.2%
IC50 (experiment of Table 6): 1050 nM
% inhibition against the beta-amyloid 42 formation compared with curcumin: superior % inhibition
Compound: CNc1ccc(C=Cc2cc3cc(I)ccc3o2)cc1OC [Compound 48, 5-iodo-2-(3-methoxy-4-methylaminostyryl)benzofuran]

IC50 (experiment of Table 1): 800 nM
Compound: CNc1ccc(C=Cc2cc3ccc(OC)cc3o2)cc1 [Compound 21, 6-methoxy-2-(4-methylaminostyryl)benzofuran]

IC50 (experiment of Table 1): 1980 nM
Compound: CN(C)c1ccc(C=Cc2cc3cc(F)ccc3o2)cc1 [Compound 5, 5-fluoro-2-(4-dimethylaminostyryl)benzofuran]

Compound: Nc1ccc(C=Cc2cc3ccccc3o2)cc1 [Compound 24, 2-(4-aminostyryl)benzofuran trifluoroacetate]
inhibition at 10 µM: 70.7%

inhibition at 10 µM [3]: 68.4%
IC50 (experiment of Table 6): 2170 nM
% inhibition against the beta-amyloid 42 formation compared with curcumin: superior % inhibition
Compound: CNc1ccc(C=Cc2cc3cc(Cl)ccc3o2)cc1 [Compound 30, 5-chloro-2-(4-methylaminostyryl)benzofuran]

inhibition at 10 µM [2]: 62.8%
Compound: CCN(CC)c1ccc(C=Cc2cc3ccc(OC)cc3o2)cc1 [Compound 57, 6-methoxy-2-(4-diethylaminostyryl)benzofuran]

inhibition at 10 µM [6]: 63.4%
IC50 (experiment of Table 7): 3400 nM
Compound: CN(C)c1ncc(/C=C/c2nc3ccccc3o2)s1 [Comparative Example 1, reference compound]

IC50 (experiment of Table 1): 2160 nM
Compound: CNc1ccc(C=Cc2cc3cc(O)ccc3o2)cc1 [Compound 19, 5-hydroxy-2-(4-methylaminostyryl)benzofuran hydrochloride]

inhibition at 10 µM [3]: 79.9%
IC50 (experiment of Table 6): 1020 nM
% inhibition against the beta-amyloid 42 formation compared with curcumin: superior % inhibition
Compound: COc1ccc2cc(C=Cc3ccc(OC)c(OC)c3)oc2c1 [Compound 59, 6-methoxy-2-(3,4-dimethoxystyryl)benzofuran]

inhibition at 10 µM [1]: 67.4%
IC50 (experiment of Table 5): 3290 nM
Compound: COc1ccc(C=Cc2cc3ccccc3o2)cc1OC [Compound 28, 2-(3,4-dimethoxystyryl)benzofuran]

inhibition at 10 µM [1]: 53.5%
Compound: CNc1ccc(C=Cc2cc3cc(OCCOCCOCCF)ccc3o2)cc1 [Compound 45, 5-(2-(2-(2-fluoroethoxy)ethoxy)ethoxy)-2-(4-methylaminostyryl)benzofuran]

IC50 (experiment of Table 1): 2190 nM
Compound: CN(C)c1ccc(C=Cc2cc3ccc(F)cc3o2)cc1 [Compound 12, 6-fluoro-2-(4-dimethylaminostyryl)benzofuran]

inhibition at 10 µM [2]: 46.5%
Compound: CNc1ccc(C=Cc2cc3ccc(C)cc3o2)cc1 [Compound 62, 6-methyl-2-(4-methylaminostyryl)benzofuran trifluoroacetate]

inhibition at 10 µM [4]: 72.5%
IC50 (experiment of Table 2): 181 nM
% inhibition against the beta-amyloid 42 formation compared with curcumin: superior % inhibition
Compound: COc1ccc(C=Cc2cc3cc(Cl)ccc3o2)cc1OC [Compound 34, 5-chloro-2-(3,4-dimethoxystyryl)benzofuran]

inhibition at 10 µM [2]: 58.3%
Compound: COc1ccc(C=Cc2cc3ccccc3o2)cc1 [Compound 27, 2-(4-methoxystyryl)benzofuran]

IC50 (experiment of Table 1): 5440 nM
Compound: COc1ccc2cc(C=Cc3ccc(N)cc3)oc2c1 [Compound 20, 6-methoxy-2-(4-aminostyryl)benzofuran]

inhibition at 10 µM [1]: 51.4%
Compound: COc1ccc(C=Cc2cc3cc(OC)c(OC)cc3o2)cc1OC [Compound 55, 5,6-dimethoxy-2-(3,4-dimethoxystyryl)benzofuran]

IC50 (experiment of Table 1): 3440 nM
Compound: Cc1ccc2cc(C=Cc3ccc(N(C)C)cc3)oc2c1 [Compound 11, 6-methyl-2-(4-dimethylaminostyryl)benzofuran]

Compound: COc1cc(/C=C/C(=O)CC(=O)/C=C/c2ccc(O)c(OC)c2)ccc1O [curcumin, reference compound]
inhibition at 10 µM [4]: 92.1%
inhibition at 10 µM [5]: 79.7%
inhibition at 10 µM [1]: 67.8%
inhibition at 10 µM [3]: 98.1%
inhibition at 10 µM [6]: 76.4%
inhibition at 10 µM: 78.3%

inhibition at 10 µM [1]: 47.6%
Compound: CNc1ccc(C=Cc2cc3cc(Cl)ccc3o2)cc1OC [Compound 32, 5-chloro-2-(3-methoxy-4-methylaminostyryl)benzofuran]

inhibition at 10 µM [6]: 25.7%
IC50 (experiment of Table 7): 31800 nM
Compound: CN(C)c1ccc(/C=C/c2nc3ccccc3s2)cc1 [Comparative Example 2, 2-(4-dimethylaminophenylethenyl)benzothiazole, reference compound]

IC50 (experiment of Table 1): 2950 nM
Compound: Nc1ccc(C=Cc2cc3cc(O)ccc3o2)cc1 [Compound 18, 5-hydroxy-2-(4-aminostyryl)benzofuran hydrochloride]

inhibition at 10 µM [2]: 57.2%
Compound: COc1ccc(C=Cc2cc3ccc(OC)cc3o2)cc1 [Compound 58, 6-methoxy-2-(4-methoxystyryl)benzofuran]

inhibition at 10 µM [5]: 62.4%
IC50 (experiment of Table 4): 5790 nM
Compound: COc1ccc(C=Cc2cc3cc(I)ccc3o2)cc1OC [Compound 50, 5-iodo-2-(3,4-dimethoxystyryl)benzofuran]

inhibition at 10 µM [1]: 24.5%
Compound: CNc1ccc(C=Cc2cc3cc(OC)ccc3o2)cc1OC [Compound 36, 5-methoxy-2-(3-methoxy-4-methylaminostyryl)benzofuran]

inhibition at 10 µM [4]: 81.1%
IC50 (experiment of Table 2): 1560 nM
Compound: COc1ccc2oc(C=Cc3ccc(OC)c(OC)c3)cc2c1 [Compound 38, 5-methoxy-2-(3,4-dimethoxystyryl)benzofuran]

inhibition at 10 µM [1]: 29.2%
Compound: COc1cc2cc(C=Cc3ccc(N(C)C)cc3)oc2cc1OC [Compound 51, 5,6-dimethoxy-2-(4-dimethylaminostyryl)benzofuran]

IC50 (experiment of Table 1): 1340 nM
Compound: CN(C)c1ccc(C=Cc2cc3ccc(Br)cc3o2)cc1 [Compound 14, 6-bromo-2-(4-dimethylaminostyryl)benzofuran]
